Test results as given in patent US20240285649A1, “PROGESTOGEN FORMULATIONS FOR USE IN MODULATING A CYTOKINE STORM MEDIATOR” (Shenzhen Evergreen Therapeutics Co., Ltd, priority 2020, published 2024).

Columns and labels:
[1] = molecular target: ABCB1 efflux transporters (Homo sapiens, UniProt P08183); settings: literature (Bloise et al. 2016); cited from earlier work
[2] = PK of PR2005 formulations (oral gavage, capsule, IM) in female dogs, relative bioavailability vs MAKENA; type: in vivo; settings: 750 mg compared to 250 mg
Description: This study determined the pharmacokinetic parameters of the test drug PR2005 (also referred to herein as 17-HPC) in different formulations after oral gavage or capsule administrations in dogs. This study further determined the relative bioavailability of the test drug PR2005 in each formulation, compared to intramuscular injection solution (MAKENA®).
PK parameters were estimated, including maximum plasma drug concentration (Cmax), time to reach Cmax (Tmax), time delay in absorption process (Tlag), area under the plasma concentration-time curve from time 0 to the last quantifiable data point (AUClast), area under the plasma concentration-time curve from time zero to infinity (AUCinf), plasma half-life (t1/2) and apparent plasma clearance (CL/F), apparent volume of distribution (Vz/F). All these parameters were computed using standard non-compartmental methods of analysis. […] Plasma PR2005 PK data was analyzed in Phoenix WinNonLin 8.1 (Certara USA, Inc.).
Log-transformed values of AUCinf were analyzed using a linear mixed-effects model. […] After back transformation from the log scale, estimates of geometric LSM and 90% CI for the ratio of means were calculated. Relative bioavailability (Fr %) was calculated as the ratio of dose normalized geometric least square mean (LSM) for test formulation and IM solution: […]

[3] = tested on: smoke exposure-induced COPD rats; experiment: Pharmacodynamic study of 17-HPC inhalation in smoke exposure-induced COPD rats (lung function, BALF differential count, HE staining, body weight); type: in vivo, Wistar rats; settings: for weight increase: at 24 weeks
Description: (§1) Seventy-two Wistar rats were randomly divided into the blank control group, model group, 17-HPC (0.5 mg/ml, 0.25 mg/ml and 0.1 mg/ml) groups, BUD (0.5 mg/ml and 0.1 mg/ml) groups, and combination treatment (0.5 mg/ml BUD+0.25 mg/ml 17-HPC and 0.1 mg/ml BUD+0.25 mg/ml 17-HPC) groups. Drug concentration is the nebulized solution concentration. Lung function (forced vital capacity) of rats was measured using the small animal spirometer, and differential count in the BALF was determined under the microscope. Serum and BALF cytokine (IL-6, IL-17, TNF-α and IL-β) levels were measured by ELISA. Inflammatory cell infiltration area and MLI in rat lung tissues were determined by HE staining.

Sprague-Dawley rats = experiment: Seven-day inhalation toxicity study in rats (GLP); type: in vivo
Description: A 7-day inhalation toxicity study in rats was conducted under GLP conditions. In this study, aerosolized 17-HPC was administered to Sprague-Dawley rats (10/sex/group) at 8, 24, and 72 mg/kg/day for 7 consecutive days. A control group of rats was dosed with aerosolized vehicle. Animals were observed daily for clinical signs. Body weight and food consumption were recorded at pretest, and then on Days 1, 4, and 7. In order to evaluate reversibility of 17-HPC treatment, a satellite rat group (5/sex/group) was dosed by inhalation at 72 mg/kg/day for 7 days, and then was sacrificed on Day 14. Except for the rats in the satellite group, all animals were sacrificed on Day 8. Hematology and biochemistry examinations were performed at the end of the study. Organ weight, gross pathology, and histopathology evaluations were performed.

[4] = tested on: IL-6, IL-17, TNF-α and IL-1β; experiment: Serum and BALF cytokine levels by ELISA in COPD rats; type: in vivo, Wistar rats; settings: aside from the low dose (0.1 mg/ml) 17-HPC group
Description: as §1, with “To examine the in vitro and in vivo efficacy of 17-HPC inhalation in chronic obstructive pulmonary disease (COPD) rats, a rat model of COPD was established by exposing Wistar rats to CS for 1 hour every day for a total of 180 days. Seventy-two” for “Seventy-two”

Chain of ABCB1 efflux transporters (P08183 whole entry): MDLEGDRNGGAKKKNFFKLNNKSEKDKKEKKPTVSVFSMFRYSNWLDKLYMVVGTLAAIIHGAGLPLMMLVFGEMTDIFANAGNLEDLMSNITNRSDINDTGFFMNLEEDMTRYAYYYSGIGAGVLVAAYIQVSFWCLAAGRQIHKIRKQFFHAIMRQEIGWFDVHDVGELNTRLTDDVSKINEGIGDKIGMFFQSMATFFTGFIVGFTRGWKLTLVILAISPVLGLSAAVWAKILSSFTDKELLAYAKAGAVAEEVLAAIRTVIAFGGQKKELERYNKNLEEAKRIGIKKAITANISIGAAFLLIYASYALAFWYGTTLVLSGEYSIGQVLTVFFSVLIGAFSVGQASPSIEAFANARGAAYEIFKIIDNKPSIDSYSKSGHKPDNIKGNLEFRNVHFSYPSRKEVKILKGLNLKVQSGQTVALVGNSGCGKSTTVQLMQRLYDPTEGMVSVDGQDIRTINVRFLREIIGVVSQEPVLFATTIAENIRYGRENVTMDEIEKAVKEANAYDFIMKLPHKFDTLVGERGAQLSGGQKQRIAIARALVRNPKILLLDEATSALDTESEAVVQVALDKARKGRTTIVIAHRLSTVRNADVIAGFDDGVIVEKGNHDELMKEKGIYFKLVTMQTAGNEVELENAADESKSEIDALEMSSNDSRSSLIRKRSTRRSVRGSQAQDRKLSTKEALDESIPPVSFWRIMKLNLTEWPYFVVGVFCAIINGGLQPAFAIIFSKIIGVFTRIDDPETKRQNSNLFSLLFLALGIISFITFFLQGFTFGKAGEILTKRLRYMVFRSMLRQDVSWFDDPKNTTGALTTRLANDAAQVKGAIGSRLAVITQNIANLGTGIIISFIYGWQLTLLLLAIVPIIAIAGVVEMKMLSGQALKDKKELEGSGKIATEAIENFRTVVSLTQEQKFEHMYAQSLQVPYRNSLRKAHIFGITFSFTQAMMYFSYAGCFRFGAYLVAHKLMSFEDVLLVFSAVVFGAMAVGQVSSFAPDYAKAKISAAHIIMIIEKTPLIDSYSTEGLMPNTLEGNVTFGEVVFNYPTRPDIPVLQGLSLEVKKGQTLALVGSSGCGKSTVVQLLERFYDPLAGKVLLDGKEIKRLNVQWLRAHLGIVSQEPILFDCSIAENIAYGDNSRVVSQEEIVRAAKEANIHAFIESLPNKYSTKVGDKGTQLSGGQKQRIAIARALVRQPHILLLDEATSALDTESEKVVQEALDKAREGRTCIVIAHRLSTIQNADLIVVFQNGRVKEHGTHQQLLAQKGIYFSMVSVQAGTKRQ

SMILES	efflux transporter substrate [1]	dose proportionality of Cmax and AUC [2]	weight increase ([3]; vs model group)	MLI ([3]; lung tissue, HE staining)	inflammatory cell infiltration in lung tissues (HE staining) ([3]; nebulized inhalation)	percentage of neutrophils in rat BALF ([3]; nebulized inhalation)	FEV0.2/FVC % ([3]; nebulized inhalation, vs model group, after 24 weeks of CS exposure)	clinical signs and body weight change (Sprague-Dawley rats; 8 mg/kg/day group, inhalation 7 days, preliminary)	Hematological and biochemical parameters (Sprague-Dawley rats; 8 mg/kg/day vs vehicle, preliminary)	organ weights, necropsy and histopathology (Sprague-Dawley rats; 8 mg/kg/day, preliminary)	NOAEL relative to proposed initial clinical dose (300 μg) based on body surface areas (Sprague-Dawley rats; rat NOAEL 48 mg/m^2/day vs 222 μg/m^2/day)	no observed adverse effect level (NOAEL), body surface (Sprague-Dawley rats; rats, inhalation, 7 consecutive days)	pathological alterations after 7-day recovery period (Sprague-Dawley rats; satellite group, 72 mg/kg/day for 7 days, sacrificed Day 14)	TNF-α, IL-1β, IL-6 and IL-17 levels in the BALF [4]
CCCCCC(=O)O[C@]1(C(C)=O)CC[C@H]2[C@@H]3CCC4=CC(=O)CC[C@]4(C)[C@H]3CC[C@@]21C [Solution 17-HPC, 17-[(1-Oxohexyl)oxyl]-pregn-4-ene-3,20-dione]	substrate of ABCB1 efflux transporters	generally greater than dose proportional	no difference in weight increase between the 17-HPC groups and the model group	decreased in the other 17-HPC groups and BUD groups in a dose-dependent manner	attenuated in the 17-HPC groups	reduced the percentage of neutrophils in rat BALF	improved FEV0.2/FVC % in a dose-dependent manner	no clinical signs and body weight change were observed	comparable between the animals treated with vehicle and 17-HPC at 8 mg/kg/day	Significant changes in organ weights, necropsy and histopathology were not recorded	approximately 216 times	48 mg/m^2/day	no remarkable pathological alterations in any animals from the satellite group	can downregulate TNF-α, IL-1β, IL-6 and IL-17 levels in the BALF
CCCC1O[C@@H]2C[C@H]3[C@@H]4CCC5=CC(=O)C=C[C@]5(C)[C@H]4[C@@H](O)C[C@]3(C)[C@]2(C(=O)CO)O1 (stereo partly drawn) [BUD, budesonide]			inhibited weight increase											
